Measurements as given in US20250101017A1, “SALT CRYSTAL FORM AND FREE BASE CRYSTAL FORM OF KINASE INHIBITOR” (CYTOSINLAB THERAPEUTICS CO., LTD., priority 2022, published 2025).
Converted amounts (≈) assume the structure as drawn. Where two headings read alike, the source gives them in different places.

Assay: Solubility at 37° C. in buffer solutions with different pH (about 10 mg in 1 ml, 2 h and 24 h); filtrate concentration and pH, XRPD of remaining solid
Type: physicochemical
Conditions: for solubility at 2 h / solubility at 24 h: thermodynamic from solid; for solubility at 2 h: read-out: Solubility at 37° C. (mg/ml) 2 h
Procedure: Approximately 10 mg of malate crystal form VII-A and free base Form A were weighed separately, and 1 ml of buffer solutions with different pH were added to make the solution supersaturated, and the mixtures were stirred at 37° C. for 2 h and 24 hours. The samples were filtered, and the filtrates were measured to determine the concentration and pH value, and the remaining solid was subjected to XRPD determination. The specific results were as follows: […]

solubility at 2 h (buffer solution pH 4.5, 37 °C, pH 4.5, aqueous buffer, medium pH 4.5, 2 h): > 10 mg/mL
solubility at 24 h (buffer solution pH 4.5, 37 °C, pH 4.5, aqueous buffer, medium pH 4.5, 24 h, read-out: Solubility at 37° C.): > 10 mg/mL
solubility at 24 h (buffer solution pH 4.5, 37 °C, pH 4.5, aqueous buffer, medium pH 4.5, 24 h, read-out: Solubility at 37° C. (mg/ml) 24 h): > 10 mg/mL
pH (24 h) (filtrate, medium FaSSIF): 5.434
pH (24 h) (filtrate, medium FeSSIF): 4.992
pH (24 h) (filtrate, medium H2O): 4.607
pH (24 h) (filtrate, medium SGF): 1.494
pH (24 h) (filtrate, medium pH 1.2): 1.463
pH (24 h) (filtrate, medium pH 3.0): 3.683
pH (24 h) (filtrate, medium pH 4.5): 4.520
pH (24 h) (filtrate, medium pH 6.8): 6.180
pH (24 h) (filtrate, medium pH 7.4): 6.664
Solubility at 37° C. (mg/ml) 2 h (medium FaSSIF, 2 h): 1.234 mg/mL (≈ 2150 µM)
Solubility at 37° C. (medium FaSSIF, 2 h, listed as API): 1234 µg/mL (≈ 2150 µM)
Solubility at 37° C. (mg/ml) 24 h (medium FaSSIF, 24 h): 0.983 mg/mL (≈ 1710 µM)
Solubility at 37° C. (medium FaSSIF, 24 h, listed as API): 983 µg/mL (≈ 1710 µM)
Crystal form (medium FaSSIF, XRPD of remaining solid, listed as API): Form A
pH (24 h) (medium FaSSIF, filtrate, 37° C., listed as API): 5.434
Solubility at 37° C. (medium FeSSIF, 2 h): >10000 µg/mL
Solubility at 37° C. (mg/ml) 2 h (medium FeSSIF, 2 h): >10 mg/mL
Solubility at 37° C. (medium FeSSIF, 24 h): >10000 µg/mL
Solubility at 37° C. (mg/ml) 24 h (medium FeSSIF, 24 h): >10 mg/mL
pH (24 h) (medium FeSSIF, filtrate, 37° C., listed as API): 4.992
Solubility at 37° C. (mg/ml) 2 h (medium H2O, 2 h): 0.0365 mg/mL (≈ 63.5 µM)
Solubility at 37° C. (medium H2O, 2 h, listed as API): 36.5 µg/mL (≈ 63.5 µM)
Solubility at 37° C. (mg/ml) 24 h (medium H2O, 24 h): 0.0046 mg/mL (≈ 8 µM)
Solubility at 37° C. (medium H2O, 24 h, listed as API): 4.6 µg/mL (≈ 8 µM)
Crystal form (medium H2O, XRPD of remaining solid, listed as API): Form A
pH (24 h) (medium H2O, filtrate, 37° C., listed as API): 4.607
Solubility at 37° C. (medium SGF, 2 h): >10000 µg/mL
Solubility at 37° C. (mg/ml) 2 h (medium SGF, 2 h): >10 mg/mL
Solubility at 37° C. (medium SGF, 24 h): >10000 µg/mL
Solubility at 37° C. (mg/ml) 24 h (medium SGF, 24 h): >10 mg/mL
pH (24 h) (medium SGF, filtrate, 37° C., listed as API): 1.494
pH (24 h) (medium pH 1.2, filtrate, 37° C., listed as API): 1.463
pH (24 h) (medium pH 3.0, filtrate, 37° C., listed as API): 3.683
pH (24 h) (medium pH 4.5, filtrate, 37° C., listed as API): 4.520
Solubility at 37° C. (mg/ml) 2 h (medium pH 6.8, 2 h): 0.294 mg/mL (≈ 512 µM)
Solubility at 37° C. (medium pH 6.8, 2 h, listed as API): 294 µg/mL (≈ 512 µM)
Solubility at 37° C. (mg/ml) 24 h (medium pH 6.8, 24 h): 0.271 mg/mL (≈ 471 µM)
Solubility at 37° C. (medium pH 6.8, 24 h, listed as API): 271 µg/mL (≈ 471 µM)
Crystal form (medium pH 6.8, XRPD of remaining solid, listed as API): Form A
pH (24 h) (medium pH 6.8, filtrate, 37° C., listed as API): 6.180
Solubility at 37° C. (mg/ml) 2 h (medium pH 7.4, 2 h): 0.012 mg/mL (≈ 20.9 µM)
Solubility at 37° C. (medium pH 7.4, 2 h, listed as API): 12 µg/mL (≈ 20.9 µM)
Solubility at 37° C. (mg/ml) 24 h (medium pH 7.4, 24 h): 0.016 mg/mL (≈ 27.8 µM)
Solubility at 37° C. (medium pH 7.4, 24 h, listed as API): 16 µg/mL (≈ 27.8 µM)
Crystal form (medium pH 7.4, XRPD of remaining solid, listed as API): Form A
pH (24 h) (medium pH 7.4, filtrate, 37° C., listed as API): 6.664
solubility at 2 h (pH 1.2 buffer solution, 37 °C, pH 1.2, simulated gastric fluid, medium pH 1.2, 2 h): > 10 mg/mL
solubility at 24 h (pH 1.2 buffer solution, 37 °C, pH 1.2, simulated gastric fluid, medium pH 1.2, 24 h, read-out: Solubility at 37° C. (mg/ml) 24 h): > 10 mg/mL
solubility at 2 h (pH 3.0 buffer solution, 37 °C, pH 3, aqueous buffer, medium pH 3.0, 2 h): > 10 mg/mL
solubility at 24 h (pH 3.0 buffer solution, 37 °C, pH 3, aqueous buffer, medium pH 3.0, 24 h, read-out: Solubility at 37° C. (mg/ml) 24 h): > 10 mg/mL
Crystal form (remaining solid, medium FaSSIF, XRPD): Free base
Crystal form (remaining solid, medium H2O, XRPD): Free base
Crystal form (remaining solid, medium pH 6.8, XRPD): Free base
Crystal form (remaining solid, medium pH 7.4, XRPD): Free base
SMILES: CCc1nc2c(N)ncc(-c3ccc(N4CCC(N5CCN(CC)CC5)CC4)c(OC)c3)c2nc1NC1CCOCC1 [Free base Form A, 3-ethyl-8-(4-(4-(4-ethylpiperazin-1-yl)piperidin-1-yl)-3-methoxyphenyl)-N2-(tetrahydro-2H-pyran-4-yl) pyridino [3,4-b]pyrazine-2,5-diamine]
